{"source": "paper PMC12196166", "about": "“Mechanistic Insight into the Enhanced Anti-Pulmonary Hypertension Efficacy of Wogonin Co-Amorphous” (Pharmaceutics, 2025)", "key": {"[1]": {"tested_on": "monocrotaline (MCT)-induced PH rats", "experiment": "Anti-pulmonary hypertension pharmacodynamics", "format": "in vivo, Sprague-Dawley rats", "protocol": "Four-week-old male SPF Sprague-Dawley rats (weighing 220 ± 10 g) were purchased from Sporford Biotechnology Co., Ltd. (Beijing, China). and were randomly divided into cages (four rats per cage) and acclimatized for at least three days with free access to food and water.\nAnti-PH pharmacodynamics were carried out using monocrotaline (MCT)-induced PH rats. Thirty rats were randomly divided into five groups: (A) control group; (B) model group; and three treatment groups (C) Wog group; (D) Wog+Alop group; and (E) Wog-Alop group. MCT was administered by a single femoral vein injection to induce PH. All administered groups of drugs were intragastrically administered from days 1 to 21 at a theoretical dose of 5 mg/kg/day for Wog. After three weeks of administration, the rats were weighed and anesthetized with 20% urethane. The electrocardiogram and right ventricular systolic pressure (RVSP) of rats were measured. The rats were perfused, and the heart and lung tissues were completely removed. The right ventricle (RV) and left ventricle plus ventricular septum (LV + S) were accurately separated and weighted, and the right ventricular hypertrophy index (RVHI) = RV/(LV + S) × 100%, RV mass index (RVMI) = RV/body weight × 100% and lung mass index (LMI) = lung weight/body weight × 100% were calculated. […] Heart tissues were taken for H&E and Masson staining, and lung tissues were stained with resorcinol basic fuchsin and proliferating cell nuclear antigen (PCNA) immunofluorescence."}, "[2]": {"tested_on": "PDGF-BB-induced PASMCs", "experiment": "Measurement of oxidative stress markers (MDA, GSH, CAT, GPx kits)", "format": "cell-based, Human", "details": "3 μM, vs. model group", "protocol": "Human PASMCs ([…], Cat. No.: CYH0707) were purchased from Wuhan Enji Life Technology Co., Ltd. (Wuhan, China) […] were cultured in Dulbecco's Modified Eagle Medium (DMEM) medium with 10% fetal bovine serum (FBS) and 1% penicillin/streptomycin (P/S), and maintained in a humidified 5% CO2 incubator at 37 °C. Prior to drug treatment, […] were subjected to serum starvation by culturing in a maintenance medium containing 0.5% FBS for 24 h to synchronize cell cycle progression. […] After 1 h, cells were stimulated with 40 ng/mL PDGF-BB for 48 h in each group except the control group. The levels of MDA and glutathione (GSH), as well as the activities of CAT and glutathione peroxidase (GPx) in cells, were measured using commercial assay kits. The treated PASMCs were collected and lysed with protein lysis buffer following the manufacturer's instructions."}, "[3]": {"tested_on": "PDGF-BB-induced PASMCs", "experiment": "ROS detection (DCFH-DA probe)", "format": "cell-based, Human", "details": "3 μM, 40 ng/mL PDGF-BB for 48 h, DCFH-DA fluorescence, vs. model group", "protocol": "Human PASMCs ([…], Cat. No.: CYH0707) were purchased from Wuhan Enji Life Technology Co., Ltd. (Wuhan, China) […] were cultured in Dulbecco's Modified Eagle Medium (DMEM) medium with 10% fetal bovine serum (FBS) and 1% penicillin/streptomycin (P/S), and maintained in a humidified 5% CO2 incubator at 37 °C. Prior to drug treatment, […] were subjected to serum starvation by culturing in a maintenance medium containing 0.5% FBS for 24 h to synchronize cell cycle progression. […] After 1 h, cells were stimulated with 40 ng/mL PDGF-BB for 48 h in each group except the control group. […] After treatment, cells were loaded with 1 μM 2',7'-dichlorodihydrofluorescein diacetate (DCFH-DA) probe for 20 min at 37 °C in the dark. Nuclei were counterstained with Hoechst 33342 Live Cells Staining Solution (1:100 dilution) for 10 min. Fluorescent imaging was performed using a laser scanning confocal microscope (Leica TCS SP8, Wetzlar, Germany) with excitation/emission settings at 488/525 nm for DCFH-DA and 350/461 nm for Hoechst 33342. ROS-associated fluorescence intensity was quantified using ImageJ 4.4 software."}, "[4]": {"tested_on": "PDGF-BB-induced PASMCs", "experiment": "Cell viability (CCK-8) assay, abnormal proliferation", "format": "cell-based, Human", "details": "3 μM, 40 ng/mL PDGF-BB for 48 h, CCK-8, vs. model group", "protocol": "Human PASMCs ([…], Cat. No.: CYH0707) were purchased from Wuhan Enji Life Technology Co., Ltd. (Wuhan, China) […] were cultured in Dulbecco's Modified Eagle Medium (DMEM) medium with 10% fetal bovine serum (FBS) and 1% penicillin/streptomycin (P/S), and maintained in a humidified 5% CO2 incubator at 37 °C. Prior to drug treatment, […] were subjected to serum starvation by culturing in a maintenance medium containing 0.5% FBS for 24 h to synchronize cell cycle progression. […] After 1 h, cells were stimulated with 40 ng/mL PDGF-BB for 48 h in each group except the control group. Cell viability was assessed using the Cell Counting Kit-8 (CCK-8) assay according to the manufacturer's protocol. Briefly, 10 μL of CCK-8 reagent was added to each well of pretreated PASMCs, followed by incubation at 37 °C under 5% CO2 for 2-h. The absorbance of each sample was quantified at 450 nm using a microplate reader."}, "[5]": {"experiment": "Pharmacokinetic study after intragastric administration", "format": "in vivo", "details": "male, Sprague-Dawley, rat, po, rats, 5 mg/kg as wogonin, plasma", "protocol": "Four-week-old male SPF Sprague-Dawley rats (weighing 220 ± 10 g) were purchased from Sporford Biotechnology Co., Ltd. (Beijing, China). and were randomly divided into cages (four rats per cage) and acclimatized for at least three days with free access to food and water. This study was performed with the approval of the Ethics Review Committee for Laboratory Animals of Beijing University of Chinese Medicine (approval number: BUCM-2023032307-1148) and strictly adhered to the relevant guidelines. Laboratory animal license No.: SCXK (Jing) 2019-0010; Laboratory unit use license No.: SYXK (Jing) 2020-0033.\nTwenty-four SD rats were randomly divided into three groups of eight rats each. After 3 days of adaptive feeding, they were fasted (free access to water) for 12 h. On the morning of the fourth day, wogonin, Wog+Alop, and Wog-Alop were intragastrically administered at a theoretical dose of 5 mg/kg for wogonin. Plasma samples were collected into heparinized tubes from the oculi choroideae vein at 0, 5, 10, 15, 30, 45, and 60 min and 2, 4, 6, 8, 12, 24, 32, and 48 h after administration. Plasma samples were separated by centrifugation and stored at −80 °C until determination. Ultra-Performance Liquid Chromatography-Tandem Triple Quadrupole Mass Spectrometry (UPLC-QQQ-MS) multi-response monitoring (MRM) mode was used to determine plasma samples, and Masslynx 4.1 was used to calculate plasma drug concentrations at each collection time point. The plasma concentration versus time plots were drawn, and the pharmacokinetic parameters were calculated by DAS 2.1 software. The relative oral bioavailability (RB) was calculated using the following formula: […]"}, "[6]": {"experiment": "In vitro dissolution in distilled water (UPLC)", "format": "physicochemical", "details": "37.0 °C, 100 rpm", "protocol": "The wogonin, physical mixture of wogonin and aloperine (Wog+Alop), and Wog-Alop with the theoretical drug content of 6.00 mg were accurately weighed and placed into 200 mL conical flasks containing 90 mL of distilled water at 37.0 °C and 100 rpm. A total of 2 mL of sample solution was withdrawn at predetermined time points (0, 1, 2, 3, 4, 5, 6, 7, 8, 9, 10, 15, 30, 45, and 60 min) and an equal volume of distilled water was immediately supplemented. The sample solutions were filtered through a 0.22 μm microporous membrane and determined by Ultra Performance Liquid Chromatography (UPLC)."}, "[7]": {"details": "intragastric 5 mg/kg/day as Wog, days 1 to 21, vs. model group"}}}
{"smiles": "C1=C2CCCN[C@H]2[C@@H]2C[C@H]1[C@H]1CCCCN1C2", "note": "[Alop, aloperine]", "values": [{"measurement": "P-wave duration", "setting": "[1]; [7]", "result": "significantly reduce"}, {"measurement": "RVHI (right ventricular hypertrophy index)", "setting": "[1]; [7]", "result": "not statistically significant"}, {"measurement": "RVMI (RV mass index)", "setting": "[1]; [7]", "result": "not statistically significant"}, {"measurement": "increase in MDA levels", "setting": "[2]", "result": "significantly inhibited"}, {"measurement": "reduction in CAT activity", "setting": "[2]", "result": "significantly inhibited"}, {"measurement": "reduction in GPx activity", "setting": "[2]", "result": "significantly inhibited"}, {"measurement": "reduction in GSH levels", "setting": "[2]", "result": "significantly inhibited"}, {"measurement": "ROS levels", "setting": "[3]", "result": "Neither Wog nor Alop alone showed notable inhibitory effects"}, {"measurement": "inhibition of abnormal proliferation of PDGF-BB-induced PASMC", "setting": "[4]", "result": "almost no inhibitory effects"}]}
{"smiles": "COc1c(O)cc(O)c2c(=O)cc(-c3ccccc3)oc12", "note": "[Wogonin]", "values": [{"measurement": "thickening of the medial wall of small pulmonary artery vessels", "setting": "[1]; 5 mg/kg/day as Wog, 21 days, resorcinol basic fuchsin staining, vs. model group", "result": "inhibit the thickening"}, {"measurement": "P-wave duration", "setting": "[1]; [7]", "result": "significantly reduce"}, {"measurement": "RVHI (right ventricular hypertrophy index)", "setting": "[1]; [7]", "result": "not statistically significant"}, {"measurement": "RVMI (RV mass index)", "setting": "[1]; [7]", "result": "not statistically significant"}, {"measurement": "RVSP (right ventricular systolic pressure)", "setting": "[1]; [7]", "result": "reduced RVSP, although without statistical significance"}, {"measurement": "AUC(0-inf)", "setting": "[5]; n = 8", "result": "77 ± 80.6", "unit": "ng·h/mL"}, {"measurement": "AUC(0-t)", "setting": "[5]; n = 8", "result": "49.1 ± 42.1", "unit": "ng·h/mL"}, {"measurement": "Cmax", "setting": "[5]; n = 8", "result": "14.8 ± 12.2", "unit": "ng/mL"}, {"measurement": "Tmax", "setting": "[5]; n = 8", "result": "1.93 ± 3.41", "unit": "h"}, {"measurement": "MRT last", "setting": "[5]; n = 8, read-out: MRT(0–t)", "result": "5.97 ± 4.79", "unit": "h"}, {"measurement": "MRT inf", "setting": "[5]; n = 8, read-out: MRT(0–∞)", "result": "12.5 ± 17.5", "unit": "h"}, {"measurement": "half-life", "setting": "[5]; n = 8, read-out: t1/2z (converted)", "result": "7.21 ± 9.97", "unit": "h"}, {"measurement": "increase in MDA levels", "setting": "[2]", "result": "significantly inhibited"}, {"measurement": "reduction in CAT activity", "setting": "[2]", "result": "significantly inhibited"}, {"measurement": "reduction in GPx activity", "setting": "[2]", "result": "significantly inhibited"}, {"measurement": "reduction in GSH levels", "setting": "[2]", "result": "significantly inhibited"}, {"measurement": "ROS levels", "setting": "[3]", "result": "Neither Wog nor Alop alone showed notable inhibitory effects"}, {"measurement": "percentage of dissolution", "setting": "[6]", "result": 2.17, "unit": "%"}, {"measurement": "inhibition of abnormal proliferation of PDGF-BB-induced PASMC", "setting": "[4]", "result": "almost no inhibitory effects"}]}
